# In US4731109A, “Herbicidal 2-haloacetanilides” (Monsanto Company, priority 1982, dated 1988):
# Read-outs that look alike come from different tables or passages of the source.
# Legend:
# Type in all cases: in vivo
# [1] = test system: Barnyardgrass; assay: Resistance to leaching and resulting herbicidal efficacy; conditions: for inhibition at 140 g/ha / inhibition at 560 g/ha / inhibition at 2200 g/ha: Echinochloa crus-galli, read-out: Percent Inhibition
# Experimental: Laboratory tests were conducted to determine the resistance of herbicides according to this invention to leaching into the soil and resulting herbicidal efficacy. […] The pots containing the treated soil were subjected to leaching by placing on a turntable which rotated under two nozzle tips of a water container calibrated to deliver one inch (2.5 cm) of water per hour simulating rainfall. Leaching rates were adjusted by varying the amount of time on the turntable. Water was delivered to the soil in the pots and allowed to percolate through the filter paper and drainage holes. The pots were then allowed to sit for three days at ambient room temperature. The treated soil in the pots was then removed, crumbled and placed as a surface layer on top of other pots containing the above soils seeded with barnyardgrass seeds. The pots were then placed on greenhouse benches, sub-irrigated and allowed to grow for 2-3 weeks. Visual ratings of percent growth inhibition compared to control (untreated) pots and fresh weights for barnyardgrass were recorded; the data from the control represents six replications and that for the test compounds three replications; test data are shown in Table XVIII.
# [2] = test system: common purslane; assay: Greenhouse pre-emergence GR15/GR85 selectivity test; conditions: Table XV
# Procedure, shortened: (§1)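 Pre-emergence soil-incorporation test: seeded pans were covered with topsoil mixed with active ingredient (in solvent or as wettable powder), overhead-irrigated (0.64 cm) or not, then subirrigated. Plants were scored about 2-3 weeks after treatment. GR15/GR85 rates are in kg/ha, and selectivity factor is crop GR15 divided by weed GR85.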
# [3] = test system: common ragweed; assay: as above; conditions: Table XV
# Procedure, shortened: as §1
# [4] = test system: redroot pigweed; assay: as above; conditions: Table XV
# Procedure, shortened: as §1
# [5] = test system: prickly sida; assay: as above; conditions: Table XV
# Procedure, shortened: as §1
# [6] = test system: peanuts; assay: as above; conditions: Table XVI
# Description: (§2) A good grade of top soil is placed in aluminum pans and compacted to a depth of three-eighths to one-half inch from the top of the pan. On the top of the soil is placed a number of seeds or vegetative propagules of various plant species. The soil required to level fill the pans after seeding or adding vegetative propagules is weighed into a pan. The soil and a known amount of the active ingredient applied in a solvent or as a wettable powder suspension are thoroughly mixed, and used to cover the prepared pans. After treatment, the pans are given an initial overhead irrigation of eater, equivalent to one-fourth inch (0.64 cm) rainfall, then watered by subirrigation as need to give adequate moisture for germination and growth. As an alternative procedure, the overhead irrigation may be omitted. Observations are made about 2-3 weeks after seeding and treatment.
# (§3) In the discussion and tables of data below, reference is made to herbicide application rates symbolized as "GR15 " and "GR85 "; these rates are given in kilograms per hectare (kg/ha) which are convertible into pounds per acre (lbs/A) by dividing the kg/ha rate by 1.12.
# (§4) A further guide to the effectiveness of a chemical as a selective herbicide is the "selectivity factor" ("SF") for a herbicide in given crops and weeds. The selectivity factor is a measure of the relative degree of crop safety and weed injury and is expressed in terms of the GR15 /GR85 ratio, i.e., the GR15 rate for the crop divided by the GR85 rate for the weed, both rates in kg/ha (lb/A). In the tables below, selectivity factors are shown in parenthesis following the GR85 rate for each weed; the symbol "NS" indicates "non-selective". Marginal or undetermined selectivity is indicated by a dash (--).
# (§5) Additionally, pre-emergence herbicidal data from other tests have established that compounds according to this invention also selectively suppress quackgrass, yellow nutsedge and/or other weeds in one or more of the crops cotton, peanuts, bush beans and/or rape. For example, in Table VI are presented data showing the herbicidal selectivity of the compounds of Examples 1 and 2 against quackgrass in rape and snap beans. Unless otherwise noted; greenhouse tests in Table VI and in other tables below involved herbicide treatments by soil incorporation and an initial overhead irrigation followed by subirrigation as described above.
# (§6) Additional greenhouse tests were made to test certain compounds of this invention against a plurality of problem weeds in peanuts and lima beans; except for fall panicum, the test weeds are particularly resistant weeds; the test data is set forth in Table XVI.
# (§7) In Table XVI, the selectivity factors for the test compounds for each weed in lima beans is shown as the first or upper value in parenthesis and the selectivity factors for each weed in peanuts is shown as the second or lower value in parenthesis for each compound. For example, the selectivity factor for the compound of Example 3 for seedling johnsongrass in lima beans is 2.1 and in peanuts, >4.9; the selectivity factor for Texas panicum in lima beans is 1.1 and in peanuts, >2.6, etc.
# [7] = test system: lima beans; assay: as above; conditions: Table XVI
# Description: as §2, §3, §4, §5, §6, §7
# [8] = test system: purple nutsedge; assay: as above; conditions: Table XV
# Description: as §2, §3, §4, §5
# In other greenhouse tests, compounds according to this invention have shown selective control of a variety of annual and perennial weeds in various crops. As further illustrative, the compound of Example 1 selectively controlled purple nutsedge in both corn nd soybeans, the respective crop/weed GR15 /GR85 ratios (expressed in kg/ha) being 0.67/0.25 (S.F.=2.7) in corn and 1.1/0.25 (S.F.=4.5) in soybeans. The compound of Example 8 has shown selective control of yellow nutsedge and quackgrass in corn and soybeans. The respective crop/yellownutsedge GR15 /GR85 ratios being >2.2/0.95 (S.F.=2.5) in corn; 2.2/0.5 (SF=4.5) in soybeans and the respective GR15 /GR85 ratios for both corn and soybeans in quackgrass being >2.2/0.5 (S.F.=4.5). In a test against yellow nutsedge in cotton, the GR15 /GR85 ratio (average of two replicates) was 2.0/0.95 (S.F.=2).
# In another greenhouse test, the compounds of Examples 3-5, 9 and 10 were tested for their herbicidal efficacy against a variety of resistant annual and perennial weeds in rape.
# [9] = Ray silt loam, 0.14 Kg/Ha, rain 0 cm
# [10] = Ray silt loam, 0.14 Kg/Ha, rain 1.27 cm
# [11] = Ray silt loam, 0.14 Kg/Ha, rain 5.08 cm
# [12] = Ray silt loam, 0.56 Kg/Ha, rain 0 cm
# [13] = Ray silt loam, 0.56 Kg/Ha, rain 1.27 cm
# [14] = Ray silt loam, 0.56 Kg/Ha, rain 5.08 cm
# [15] = Ray silt loam, 0.56 Kg/Ha, rain 10.16 cm
# [16] = Ray silt loam, 2.2 Kg/Ha, rain 0 cm
# [17] = Ray silt loam, 2.2 Kg/Ha, rain 1.27 cm
# [18] = Ray silt loam, 2.2 Kg/Ha, rain 5.08 cm
# [19] = Ray silt loam, 2.2 Kg/Ha, rain 10.16 cm
# [20] = Ray silt loam, 0.14 Kg/Ha, rain 10.16 cm
structure (smiles),measurement,setting,value
"Cc1cccc(C(F)(F)F)c1N(COCC(C)C)C(=O)CCl [Example 5, N--(isobutoxymethyl)-2'-trifluoromethyl-6'-methyl-2-chloroacetanilide]",inhibition at 140 g/ha,"[1]; Drummer silt clay, 0.14 Kg/Ha, rain 0 cm",12%
same,inhibition at 140 g/ha,"[1]; Drummer silt clay, 0.14 Kg/Ha, rain 1.27 cm",26%
same,inhibition at 140 g/ha,"[1]; Drummer silt clay, 0.14 Kg/Ha, rain 5.08 cm",20%
same,inhibition at 140 g/ha,"[1]; Drummer silt clay, 0.14 Kg/Ha, rain 10.16 cm",12%
same,inhibition at 560 g/ha,"[1]; Drummer silt clay, 0.56 Kg/Ha, rain 0 cm",50%
same,inhibition at 560 g/ha,"[1]; Drummer silt clay, 0.56 Kg/Ha, rain 1.27 cm",100%
same,inhibition at 560 g/ha,"[1]; Drummer silt clay, 0.56 Kg/Ha, rain 5.08 cm",93%
same,inhibition at 560 g/ha,"[1]; Drummer silt clay, 0.56 Kg/Ha, rain 10.16 cm",84%
same,inhibition at 2200 g/ha,"[1]; Drummer silt clay, 2.2 Kg/Ha, rain 0 cm",100%
same,inhibition at 2200 g/ha,"[1]; Drummer silt clay, 2.2 Kg/Ha, rain 1.27 cm",100%
same,inhibition at 2200 g/ha,"[1]; Drummer silt clay, 2.2 Kg/Ha, rain 5.08 cm",100%
same,inhibition at 2200 g/ha,"[1]; Drummer silt clay, 2.2 Kg/Ha, rain 10.16 cm",100%
same,inhibition at 140 g/ha,[1]; [9],84%
same,inhibition at 140 g/ha,[1]; [10],90%
same,inhibition at 140 g/ha,[1]; [11],58%
same,inhibition at 560 g/ha,[1]; [12],99%
same,inhibition at 560 g/ha,[1]; [13],99%
same,inhibition at 560 g/ha,[1]; [14],90%
same,inhibition at 560 g/ha,[1]; [15],72%
same,inhibition at 2200 g/ha,[1]; [16],100%
same,inhibition at 2200 g/ha,[1]; [17],100%
same,inhibition at 2200 g/ha,[1]; [18],99%
same,inhibition at 2200 g/ha,[1]; [19],84%
same,inhibition at 140 g/ha,[1]; [20],29%
same,Fresh Weight,[1]; [9],0.66 Grams
same,Fresh Weight,[1]; [10],0.43 Grams
same,Fresh Weight,[1]; [11],1.72 Grams
same,Fresh Weight,[1]; [20],2.92 Grams
same,Fresh Weight,[1]; [12],0.04 Grams
same,Fresh Weight,[1]; [13],0.02 Grams
same,Fresh Weight,[1]; [14],0.41 Grams
same,Fresh Weight,[1]; [15],1.17 Grams
same,Fresh Weight,[1]; [16],0 Grams
same,Fresh Weight,[1]; [17],0 Grams
same,Fresh Weight,[1]; [18],0.03 Grams
same,Fresh Weight,[1]; [19],0.64 Grams
same,GR85 Rate,[2],> 1.12 Kg/Ha
same,GR85 Rate,[3],0.98 Kg/Ha
same,selectivity factor (GR15/GR85),[3]; in rape,> 1.1
same,GR85 Rate,[4],0.50 Kg/Ha
same,selectivity factor (GR15/GR85),[4]; in rape,> 2.2
same,GR85 Rate,[5],> 1.12 Kg/Ha
same,GR15 Rate,[6],0.56 Kg/Ha
same,GR15 Rate,[7],> 1.12 Kg/Ha
same,GR85 Rate,[8],0.23 Kg/Ha
same,selectivity factor (GR15/GR85),[8]; in rape,> 4.9
